This is an account of results in patent US8431566B2, “Cyclopamine lactam analogs and methods of use thereof” (Infinity Discovery, Inc., priority 2007, dated 2013).

For orientation: EC50 means the concentration at which the effect is half-maximal. A lower EC50 goes with a more potent agent. A word on the ED50: it is the dose that gives a 50% effect, or the effect in half of the subjects.

The subject of assay [1] is Hedgehog pathway in C3H10T1/2 cells. Nature of the assay: C3H10T1/2 osteoblast differentiation assay (alkaline phosphatase readout, Shh-induced). Format: cell-based. As to conditions: Mus musculus, C3H 10T1/2, Approximate EC50 for inhibition, sonic Hedgehog 250 ng/ml, AP activity normalized against total protein. An excerpt: Hedgehog pathway specific cancer cell killing effects may be ascertained using the following assay. C3H10T1/2 cells differentiate into osteoblasts when contacted with the sonic hedgehog peptide (Shh-N). Upon differentiation; these osteoblasts produce high levels of alkaline phosphatase (AP) which can be measured in an enzymatic assay (Nakamura, et al., BBRC (1997) 237:465). Compounds that block the differentiation of C3H10T1/2 into osteoblasts (a Shh dependent event) can therefore be identified by a reduction in AP production (van der Horst, et al., Bone (2003) 33:899). The assay details are described below. The results (EC50 for inhibition) of the differentiation assay are shown below in Table 1.
Mouse embryonic mesoderm fibroblasts C3H10T1/2 cells (obtained from ATCC) were cultured in Basal MEM Media (Gibco/Invitrogen) supplemented with 10% heat inactivated FBS (Hyclone), 50 units/ml penicillin and 50 ug/ml streptomycin (Gibco/Invitrogen) at 37° C. with 5% CO2 in air atmosphere.
C3H10T1/2 cells were plated in 96 wells with a density of 8×10^3 cells/well. Cells were grown to confluence (72 hrs). After sonic Hedgehog (250 ng/ml), and/or compound treatment, the cells were lysed in 110 μL, of lysis buffer (50 mM Tris pH 7.4, 0.1% Triton X 100), plates were sonicated and lysates spun through 0.2 μm PVDF plates (Corning). 40 μL of lysates was assayed for AP activity in alkaline buffer solution (Sigma) containing 1 mg/ml p-Nitrophenyl Phosphate. After incubating for 30 min at 37° C., the plates were read on an Envision plate reader at 405 nm. Total protein was quantified with a BCA protein assay kit from Pierce according to manufacturer's instructions. AP activity was normalized against total protein.

Assay [2] concerns KG1. The experiment in a line: MDS colony formation in methylcellulose, KG1. In kind it is cell-based, human. Conditions: 1.0 uM, 72 hours. The procedure: (§1) The ability of Compound 12 to inhibit the in vitro growth of human cell lines derived from patients with acute myeloid leukemia (AML, cell line U937) and myelodysplastic syndrome (MDS, cell line KG1 and KG1a) was studied. Each of the cell lines was treated for 72 hours with Compound 12 (1.0 uM) followed by plating in methylcellulose.

Assay [3] relates to murine Gli-1 mRNA. Nature of the assay: Pancreatic cancer model: q-RT-PCR of HH pathway genes in harvested tumors, murine Gli-1. Format: in vivo. Conditions: BXPC-3 tumors harvested 4 hours post the last dose; 30 mg/kg/day orally. As for the experimental part: (§2) The activity of Compound 12 was further tested in a human pancreatic model: BXPC-3 cells were implanted subcutaneously into the flanks of the right legs of mice. On day 42 post-tumor implant, the mice were randomized into two groups to receive either Vehicle (30% HPBCD) or Compound 12. Compound 12 was administered orally at 30 mg/kg/day. After receiving 25 daily doses, Compound 12 reduced tumor volume growth by 16% when compared to the vehicle control. At the end of the study, the tumors were harvested 4 hours post the last dose to evaluate an on target response by q-RT-PCR analysis of the HH pathway genes.

Assay [4] has as its system Gli-reponsive luciferase reporter in RS4-11. Nature of the assay: Gli-responsive luciferase reporter transient transfection assay, RS4-11. As to conditions: 1 uM, vehicle alone 12.97. In kind it is cell-based. As for the experimental part:
(§3) The activity of Compound 12 (1 uM) against three pre-B cell acute lymphocytic leukemia cell lines (REH, RS4-11, and Nalm-6) was studied, using a transient transfection assay in which a Gli-reponsive luciferase reporter was transiently transfected into cells. Treatment with Compound 12 repressed luciferase activity compared to a vehicle treated control (Table 4).
(Reporter assays use an easily measured gene product as a stand-in for the process of interest.)

In assay [5] the test system is Gli-reponsive luciferase reporter in REH. Nature of the assay: Gli-responsive luciferase reporter transient transfection assay, REH. Conditions: 1 uM, vehicle alone 6.73. Format: cell-based. The procedure:
as §3

The subject of assay [6] is Jeko-1. The experiment in a line: Non-Hodgkin's lymphoma colony formation in methylcellulose, Jeko-1. Format: cell-based, human. Conditions: NHL, 1.0 uM, 72 hours. As for the experimental part:
(§4) The ability of Compound 12 to inhibit the in vitro growth of human cell lines derived from patients with non-Hodgkin's lymphoma (cell lines RL and Jeko-1) and Hodgkin's disease (cell line L428) was studied. Each of the cell lines was treated for 72 hours with Compound 12 (1.0 uM) followed by plating in methylcellulose.

Assay [7] concerns KG1a. Nature of the assay: MDS colony formation in methylcellulose, KG1a. As to conditions: 1.0 uM, 72 hours. In kind it is cell-based, human. The procedure:
as §1

Assay [8] relates to REH. The experiment in a line: Pre-B cell ALL colony formation in methylcellulose, REH. In kind it is cell-based. Conditions: treated 72 hours. The procedure:
(§5) The effect of Compound 12 on the growth of two of these cell lines, treated in vitro for 72 hours, was also studied. Following treatment, cells were washed and plated in methylcellulose.

The test system of assay [9] is medulloblastoma. The experiment in a line: Medulloblastoma model (Ptch1/Hic1 subcutaneous allografts): tumor growth. In kind it is in vivo, mouse. The procedure: (§6) The activity of Compound 12 was also evaluated in a transgenic mouse model of medulloblastoma. Mice that are heterozygous for loss of function mutations in the tumor suppressors Patched1 (Ptch1) and Hypermethylated in Cancer (Hic1) develop spontaneous medulloblastoma. […] When passaged as subcutaneous allografts, these tumors grow aggressively and are Hedgehog pathway-dependent. This model was employed to evaluate the efficacy of orally administered Compound, and to correlate activity with drug exposure in plasma and tumors.

Assay [10] relates to U937. The experiment in a line: AML colony formation in methylcellulose, U937. Format: cell-based, human. As to conditions: 1.0 uM, 72 hours. As for the experimental part:
as §1

Assay [11] deals with KMS12. The experiment in a line: Multiple myeloma colony growth in methylcellulose, KMS12. Format: cell-based, human. As to conditions: treated 96 hours, plated in methylcellulose, colonies quantified 10-21 days later. As for the experimental part:
(§7) The ability of Compound 12 to inhibit the growth of multiple myeloma cells (MM) in vitro was tested, using human multiple myeloma cells lines (NCI-H929 and KMS12) and primary clinical bone marrow specimens derived from patients with MM. The cells were treated for 96 hours with Compound, washed, then plated in methylcellulose. Tumor colonies were quantified 10-21 days later as an indicator of cell growth potential following treatment.

Assay [12] deals with L428. The experiment in a line: Hodgkin's disease colony formation in methylcellulose, L428. In kind it is cell-based, human. As to conditions: HD, 1.0 uM, 72 hours. The procedure:
as §4

For assay [13], the system named is BXPC-3 cells. The experiment in a line: Pancreatic cancer model: subcutaneous BXPC-3 tumors in mice, tumor volume. Format: in vivo, human. As to conditions: BXPC-3 subcutaneous in mice; orally 30 mg/kg/day, 25 daily doses. As for the experimental part:
as §2

For assay [14], the system named is primary clinical bone marrow specimens derived from patients with MM. Nature of the assay: Multiple myeloma colony growth in methylcellulose, primary clinical bone marrow specimens. In kind it is cell-based, human. As to conditions: clinical samples from MM patients; treated 96 hours, plated in methylcellulose. As for the experimental part:
as §7

Assay [15] deals with human Gli-1. The experiment in a line: Pancreatic cancer model: q-RT-PCR of HH pathway genes in harvested tumors, human Gli-1. In kind it is in vivo. As to conditions: BXPC-3 tumors harvested 4 hours post the last dose; 30 mg/kg/day orally. As for the experimental part:
as §2

The subject of assay [16] is RL. Nature of the assay: Non-Hodgkin's lymphoma colony formation in methylcellulose, RL. Format: cell-based, human. As to conditions: NHL, 1.0 uM, 72 hours. The procedure:
as §4

For assay [17], the system named is NCI-H929. Nature of the assay: Multiple myeloma colony growth in methylcellulose, NCI-H929. Format: cell-based, human. Conditions: treated 96 hours, plated in methylcellulose, colonies quantified 10-21 days later. As for the experimental part: as §7
For assay [18], the system named is RS4-11. The experiment in a line: Pre-B cell ALL colony formation in methylcellulose, RS4-11. Format: cell-based. Conditions: treated 72 hours. As for the experimental part:
as §5

For assay [19], the system named is Gli-reponsive luciferase reporter in Nalm-6. The experiment in a line: Gli-responsive luciferase reporter transient transfection assay, Nalm-6. Format: cell-based. As to conditions: 1 uM, vehicle alone 8.42. As for the experimental part:
as §3

The test system of assay [20] is Gli-1 mRNA. Nature of the assay: Medulloblastoma model (Ptch1/Hic1 subcutaneous allografts): Gli-1 mRNA expression in tumors. Format: in vivo, mouse. Conditions: single oral dose, subcutaneously implanted medulloblastoma tumors, 8 hours post dose. As for the experimental part: as §6
Where [21] appears, read: 2° plating (replating of colonies).

`CC1=C2C[C@H]3[C@@H](CC[C@@H]4CN(C)C(=O)CC[C@@]43C)[C@@H]2CC[C@@]2(C1)O[C@@H]1C[C@H](C)CN[C@H]1[C@H]2C` [Compound 31] yielded an EC50 in assay [1] of 20 to 100 nM.

`CC1=C2C[C@H]3[C@@H](CCC4=CN(C)C(=O)CC[C@@]43C)[C@@H]2CC[C@@]2(C1)O[C@@H]1C[C@H](C)CN[C@H]1[C@H]2C` [Compound 41]: the EC50 in assay [1] was more than 100 nM.

On to `CC1=C2C[C@H]3[C@@H](CC[C@H]4NC(=O)CC[C@@]43C)C2CC[C@@]2(C1)O[C@@H]1C[C@H](C)CN[C@H]1[C@H]2C` (some centres unmarked) [Compound 1], for which the EC50 in assay [1] was less than 20 nM.

`CC1=C2C[C@H]3[C@@H](CC[C@@H]4CC(=O)NCC[C@@]43C)[C@@H]2CC[C@@]2(C1)O[C@@H]1C[C@H](C)CN[C@H]1[C@H]2C` [Compound 19] displayed an EC50 in assay [1] of more than 100 nM.

For `CC1=C2C[C@H]3[C@@H](CC[C@@H]4CNC(=O)CC[C@@]43C)[C@@H]2CC[C@@]2(C1)O[C@@H]1C[C@H](C)CN[C@H]1[C@H]2C` [Compound 12], the “% colony formation with Compound 12 (relative to vehicle control)” value stood at 25.1% in [2]; 27.4% in assay [6]; 34.6% in [7]; 43.4% in assay [10]; 21.4% in [12]; 14.3% in assay [16]. Moreover, the EC50 in [1] lay in the range of 20 to 100 nM. Moreover, the “murine Gli-1 mRNA levels (q-RT-PCR) compared to Vehicle treated group” value in assay [3] was “robust down-regulation”. Besides, the “Relative luc activity (+ Compound)” value stood at 1.31 in [4], 1.12 in assay [5] and 1.44 in assay [19]. The figures for the “% colony formation with Compound (relative to vehicle control) - 1° plating” value in [8] (1° plating) and in [18] (1° plating) were 63% and 71%, respectively. The “% colony formation with Compound (relative to vehicle control) - 2° plating” value in [8] (setting [21]) turned out to be 9%; in [18] (setting [21]), 11%. The ED50 in assay [9] (Mus musculus, daily oral dosing, medulloblastoma allografts, read-out: approximate effective daily oral dose for 50% inhibition of tumor growth (ED50)) lay within 3 to 7.5 mg/kg. The tumor regression entry in [9] (daily (QD) PO administration, at higher doses) is on record as “frank tumor regression seen at higher doses”. For the same compound, the “inhibition of tumor growth” value in [9] (daily (QD) PO administration, medulloblastoma allografts) is “dose dependent inhibition of tumor growth”. The “% growth of cells (untreated control 100%)” value in assay [11], in assay [14] and in assay [17] was “less than 25%” throughout. The “reduced tumor volume growth compared to the vehicle control” value in assay [13] is reported as 16%. In addition, in assay [15], the “human Gli-1 modulation (q-RT-PCR)” value was “no modulation”. In addition, the “HH pathway regulation measured by Gli-1 mRNA expression” value in assay [20] was “dose-dependent down-regulation”.

As for `CC1=C2C[C@H]3[C@@H](CC[C@@H]4CNC(=O)CC[C@@]43C)[C@@H]2CC[C@@]2(C1)O[C@@H]1C[C@H](C)CN(S(C)(=O)=O)[C@H]1[C@H]2C` [Compound 40], the EC50 in [1] is less than 20 nM.

In assay [1], `CC1=C2C[C@H]3[C@@H](CC[C@@H]4CCN(S(C)(=O)=O)CC[C@@]43C)[C@@H]2CC[C@@]2(C1)O[C@@H]1C[C@H](C)CN(S(C)(=O)=O)[C@H]1[C@H]2C` [Compound 50] gave a 50% effective concentration (EC50) of more than 100 nM.

In the case of `CC1=C2C[C@H]3[C@@H](CC[C@@H]4NC(=O)CC[C@@]43C)[C@@H]2CC[C@@]2(C1)O[C@@H]1C[C@H](C)CN[C@H]1[C@H]2C` [Compound 11], in [1], the EC50 is more than 100 nM.

As to `CC1=C2C[C@H]3[C@@H](CC[C@@H]4CN(C)C(=O)CC[C@@]43C)[C@@H]2CC[C@@]2(C1)O[C@@H]1C[C@H](C)CN(S(C)(=O)=O)[C@H]1[C@H]2C` [Compound 35], the EC50 in assay [1] is more than 100 nM.
